In patent publication US20230365546A1, “5-SUBSTITUTED INDOLE 3-AMIDE DERIVATIVES, PREPARATION METHOD AND USE THEREOF” (ORIGIANT PHARMACEUTICAL CO., LTD, priority 2020, published 2023):

Tests used:
[1] = target: RIPK1 (Homo sapiens (Human), UniProt Q13546); experiment: In vitro kinase assay (Eurofins Kinase Profiler), IC50; format: biochemical; details: 0.001-10 μM, read-out: RIPK 1 (IC50)
[2] = system: HT-29 cells; experiment: Protection against programmed necrosis of HT-29 cells (TNF α/Smac mimetic/Z-VAD-FMK, CCK8); format: cell-based; details: Homo sapiens, TNF α/Smac mimetic/Z-VAD-FMK induced 24 h, CCK8, read-out: HT-29 (EC50)
Protocol: In vitro protection against programmed necrosis of HT-29 cells was conducted by ourselves.
DMEM medium was purchased from Gibco Inc., penicillin and streptomycin were purchased from HyClone Inc., TNF α was purchased from PeproTech Inc., Smac mimetic and Z-VAD-FMK were purchased from Selleck Inc., CCK8 was purchased from Medchem Express Inc.
HT-29 cells (colon cancer cells) were cultured in DMEM+10% FBS+Penicillin/Streptomycin medium. During the experiments, HT-29 cells in logarithmic growth phase were harvested, seeded in a 96-well plate at specific numbers per well (typically 8×10^3 cells/well of adherent cells) and cultured overnight in a 37° C., 5% CO2 cell culture incubator. The next day, the compounds to be tested were diluted with culture medium to the corresponding concentrations and added into the corresponding wells of a 96-well plate, with 3 replicate wells for each sample, and a Vehicle control group and a blank Control group containing only culture medium were set at the same time. […] The absorbance was measured at 495 nm wavelength using a microplate reader, and the protection rate of the drug on the cells necrosis was calculated according to the following formula:
Protection rate of cell necrosis=[(X−C0)/(C−C0)]×100%
Wherein, C, C0, and X represent the mean absorbance values of the Vehicle control group, Blank control group and Drug treatment group, respectively.

RIPK1, sequence (Q13546 whole entry): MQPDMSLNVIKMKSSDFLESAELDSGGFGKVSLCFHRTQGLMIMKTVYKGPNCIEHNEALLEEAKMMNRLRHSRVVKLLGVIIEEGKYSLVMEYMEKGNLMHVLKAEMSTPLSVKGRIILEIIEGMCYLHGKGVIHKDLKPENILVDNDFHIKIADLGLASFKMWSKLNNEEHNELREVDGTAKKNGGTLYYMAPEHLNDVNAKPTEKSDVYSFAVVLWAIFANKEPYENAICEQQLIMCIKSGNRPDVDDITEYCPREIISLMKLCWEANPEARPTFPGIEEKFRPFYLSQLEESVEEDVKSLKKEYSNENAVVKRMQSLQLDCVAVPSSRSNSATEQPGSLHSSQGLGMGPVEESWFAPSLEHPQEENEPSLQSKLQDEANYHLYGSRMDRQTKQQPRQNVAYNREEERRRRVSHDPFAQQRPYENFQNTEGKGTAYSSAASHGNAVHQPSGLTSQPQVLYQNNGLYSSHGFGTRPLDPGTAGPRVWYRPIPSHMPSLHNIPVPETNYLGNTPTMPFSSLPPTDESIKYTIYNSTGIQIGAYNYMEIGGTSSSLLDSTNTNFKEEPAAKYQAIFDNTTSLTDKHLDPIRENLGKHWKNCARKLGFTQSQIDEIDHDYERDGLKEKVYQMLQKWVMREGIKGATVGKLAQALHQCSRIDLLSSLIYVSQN

Row | SMILES | IC50 [1] | EC50 [2]
1 | C[C@H](NC(=O)c1cn(C)c2ccc(-c3cc[nH]n3)cc12)c1cccc(F)c1 [Compound 78] | ≥ 1 µM | 0.1 to 1 µM
2 | Cn1cc(C(=O)NCc2ccc(F)cc2)c2cc(-c3ccc4nc(NC(=O)C5CC5)sc4c3)ccc21 [Compound 79] | 0.1 to 1 µM | 0.01 to 0.1 µM
3 | O=C(NCc1ccc(F)cc1F)c1c[nH]c2ncc(-c3ccc4nc(NC(=O)C5CC5)sc4c3)cc12 [Compound 80] | 0.1 to 1 µM | 0.01 to 0.1 µM
4 | C[C@H](NC(=O)c1c[nH]c2ccc(-c3ccc4c(N)ncnn34)cc12)c1cccc(F)c1 [Compound 83] | 0.1 to 1 µM | 0.1 to 1 µM
5 | Cc1noc(C)c1CNC(=O)c1c[nH]c2ccc(-c3ccc4nc(NC(=O)C5CC5)sc4c3)cc12 [Compound 84] | 0.1 to 1 µM | 0.1 to 1 µM
6 | O=C(NCc1ccn[nH]1)c1c[nH]c2ccc(-c3ccc4nc(NC(=O)C5CC5)sc4c3)cc12 [Compound 85] | ≥ 1 µM | ≥ 1 µM
7 | Cn1cc(CNC(=O)c2c[nH]c3ccc(-c4ccc5nc(NC(=O)C6CC6)sc5c4)cc23)cn1 [Compound 86] | ≥ 1 µM | ≥ 1 µM
8 | O=C(NCc1ccc2[nH]ccc2c1)c1c[nH]c2ccc(-c3ccc4nc(NC(=O)C5CC5)sc4c3)cc12 [Compound 87] | ≥ 1 µM | ≥ 1 µM
9 | COCC(=O)Nc1nc2ccc(-c3ccc4c(c3)c(C(=O)N[C@@H](C)c3cccc(F)c3)cn4C)nc2s1 [Compound 91] | 0.1 to 1 µM | 0.1 to 1 µM
10 | COCC(=O)Nc1nc2ccc(-c3ccc4[nH]cc(C(=O)N[C@@H](C)c5cccc(F)c5)c4c3)cn2n1 [Compound 92] | 0.1 to 1 µM | 0.1 to 1 µM
11 | O=C(NCc1ccc(N2CCOCC2)cc1)c1c[nH]c2ccc(-c3ccc4nc(NC(=O)C5CC5)sc4c3)cc12 [Compound 93] | ≥ 1 µM | ≥ 1 µM
12 | COCC(=O)Nc1nc2ccc(-c3ccc4[nH]cc(C(=O)NCc5cccc(F)c5)c4c3)cn2n1 [Compound 95] | 0.1 to 1 µM | 0.1 to 1 µM
13 | O=C(NCc1ccc(N2CCOCC2)cc1)c1c[nH]c2ccc(-c3ccn4nc(NC(=O)C5CC5)nc4c3)cc12 [Compound 97] | ≥ 1 µM | ≥ 1 µM
14 | Cn1cc(C(=O)NCc2ccc(N3CCOCC3)cc2)c2cc(-c3ccn4nc(NC(=O)C5CC5)nc4c3)ccc21 [Compound 98] | ≥ 1 µM | ≥ 1 µM
15 | O=C(NCc1ccc(N2CCOCC2)cc1)c1c[nH]c2ccc(-c3ccc4nc(NC(=O)C5CC5)sc4n3)cc12 [Compound 99] | ≥ 1 µM | ≥ 1 µM
16 | Cn1cc(C(=O)NCc2ccc(N3CCOCC3)cc2)c2cc(-c3ccc4nc(NC(=O)C5CC5)sc4n3)ccc21 [Compound 100] | ≥ 1 µM | ≥ 1 µM
17 | Nc1ncnn2c(-c3ccc4[nH]nc(C(=O)NCCc5cccc(F)c5)c4c3)ccc12 [Compound 102] | 0.1 to 1 µM | 0.1 to 1 µM
18 | CCn1cc(C(=O)N[C@@H](C)c2cccc(F)c2)c2cc(-c3ccc4c(NC(=O)C5CC5)n[nH]c4c3)ccc21 [Compound 111] | 0.001 to 0.01 µM | < 0.001 µM
19 | CC(C)n1cc(C(=O)N[C@@H](C)c2cccc(F)c2)c2cc(-c3ccc4c(NC(=O)C5CC5)n[nH]c4c3)ccc21 [Compound 112] | 0.01 to 0.1 µM | 0.001 to 0.01 µM
20 | CCCn1cc(C(=O)N[C@@H](C)c2cccc(F)c2)c2cc(-c3ccc4c(NC(=O)C5CC5)n[nH]c4c3)ccc21 [Compound 113] | 0.001 to 0.01 µM | 0.001 to 0.01 µM
21 | CC(C)Cn1cc(C(=O)N[C@@H](C)c2cccc(F)c2)c2cc(-c3ccc4c(NC(=O)C5CC5)n[nH]c4c3)ccc21 [Compound 115] | 0.001 to 0.01 µM | 0.01 to 0.1 µM
22 | COCCn1cc(C(=O)N[C@@H](C)c2cccc(F)c2)c2cc(-c3ccc4c(NC(=O)C5CC5)n[nH]c4c3)ccc21 [Compound 116] | 0.001 to 0.01 µM | 0.01 to 0.1 µM
23 | CC(C)C(=O)Nc1nc2cc(-c3ccc4c(c3)c(C(=O)N[C@H](C)c3cccc(F)c3)cn4C)ccn2n1 [Compound 125] | ≥ 1 µM | ≥ 1 µM
24 | COc1cccc([C@@H](C)NC(=O)c2cn(C)c3ccc(-c4ccn5nc(NC(=O)C(C)C)nc5c4)cc23)c1 [Compound 128] | 0.1 to 1 µM | 0.1 to 1 µM
25 | CC(C)C(=O)Nc1nc2cc(-c3ccc4c(c3)c(C(=O)NC(C)c3ccc(F)cc3)cn4C)ccn2n1 (stereo not shown) [Compound 130] | 0.01 to 0.1 µM | 0.001 to 0.01 µM
26 | CC(C)C(=O)Nc1nc2cc(-c3ccc4c(c3)c(C(=O)N[C@@H](C)c3ccc(F)cc3)cn4C)ccn2n1 [Compound 131] | 0.01 to 0.1 µM | < 0.001 µM
27 | CC(C)C(=O)Nc1nc2cc(-c3ccc4c(c3)c(C(=O)N[C@H](C)c3ccc(F)cc3)cn4C)ccn2n1 [Compound 132] | 0.1 to 1 µM | 0.1 to 1 µM
28 | COc1ccc([C@H](C)NC(=O)c2cn(C)c3ccc(-c4ccn5nc(NC(=O)C(C)C)nc5c4)cc23)cc1 [Compound 133] | 0.01 to 0.1 µM | < 0.001 µM
29 | COc1ccc([C@@H](C)NC(=O)c2cn(C)c3ccc(-c4ccn5nc(NC(=O)C(C)C)nc5c4)cc23)cc1 [Compound 134] | ≥ 1 µM | 0.1 to 1 µM

More lines, main results first:

Row | IC50 [1] | SMILES | EC50 [2]
30 | 0.01 to 0.1 µM | C[C@H](NC(=O)c1c[nH]c2ccc(-c3ccc4nc(NC(=O)C5CC5)[nH]c4c3)cc12)c1cccc(F)c1 [Compound 81] | 0.1 to 1 µM
31 | 0.01 to 0.1 µM | C[C@H](NC(=O)c1c[nH]c2ccc(-c3ccn4nc(NC(=O)C5CC5)nc4c3)cc12)c1cccc(F)c1 [Compound 82] | 0.1 to 1 µM
32 | 0.01 to 0.1 µM | C[C@H](NC(=O)c1c[nH]c2ccc(-c3ccc4nc(NC(=O)C5CC5)sc4n3)cc12)c1cccc(F)c1 [Compound 88] | 0.001 to 0.01 µM
33 | 0.01 to 0.1 µM | C[C@H](NC(=O)c1cn(C)c2ccc(-c3ccc4nc(NC(=O)C5CC5)sc4n3)cc12)c1cccc(F)c1 [Compound 89] | 0.001 to 0.01 µM
34 | 0.01 to 0.1 µM | COCC(=O)Nc1nc2ccc(-c3ccc4c(c3)c(C(=O)N[C@@H](C)c3cccc(F)c3)cn4C)cn2n1 [Compound 96] | 0.01 to 0.1 µM
35 | 0.01 to 0.1 µM | Cc1ccc(CCNC(=O)c2n[nH]c3ccc(-c4ccc5c(N)ncnn45)cc23)cc1 [Compound 101] | 0.1 to 1 µM
36 | 0.01 to 0.1 µM | Nc1ncnn2c(-c3ccc4[nH]nc(C(=O)NCCc5ccc(F)cc5)c4c3)ccc12 [Compound 103] | 0.1 to 1 µM
37 | 0.001 to 0.01 µM | C[C@H](NC(=O)c1cn(C)c2ccc(-c3ccc4c(NC(=O)C5CC5)n[nH]c4c3)cc12)c1cccc(F)c1 [Compound 104] | < 0.001 µM
38 | 0.01 to 0.1 µM | CC(C)C(=O)Nc1nc2cc(-c3ccc4c(c3)c(C(=O)NC(C)c3ccccc3)cn4C)ccn2n1 (stereo not shown) [Compound 105] | 0.001 to 0.01 µM
39 | 0.001 to 0.01 µM | CC(C)C(=O)Nc1nc2cc(-c3ccc4c(c3)c(C(=O)N[C@@H](C)c3cccc(F)c3)cn4C)ccn2n1 [Compound 106] | < 0.001 µM
40 | 0.01 to 0.1 µM | CC(C)C(=O)Nc1nc2ccc(-c3ccc4c(c3)c(C(=O)N[C@@H](C)c3cccc(F)c3)cn4C)cn2n1 [Compound 107] | 0.001 to 0.01 µM
41 | 0.001 to 0.01 µM | C[C@H](NC(=O)c1cn(C)c2ccc(-c3ccn4nc(NC(=O)C5CC5)cc4n3)cc12)c1cccc(F)c1 [Compound 108] | 0.001 to 0.01 µM
42 | 0.001 to 0.01 µM | C[C@H](NC(=O)c1cn(C)c2ccc(-c3ccc4nc(NC(=O)C5CC5)cn4n3)cc12)c1cccc(F)c1 [Compound 109] | < 0.001 µM
43 | 0.01 to 0.1 µM | C[C@H](NC(=O)c1cn(C)c2ccc(-c3ccc4c(NC(=O)C5CC5)c[nH]c4c3)cc12)c1cccc(F)c1 [Compound 117] | 0.01 to 0.1 µM
44 | 0.01 to 0.1 µM | C[C@H](NC(=O)c1cn(C)c2ccc(-c3ccc4c(C(=O)NC5CC5)c[nH]c4c3)cc12)c1cccc(F)c1 [Compound 118] | 0.001 to 0.01 µM
45 | 0.001 to 0.01 µM | C[C@H](NC(=O)c1cn(C)c2ccc(-c3ccc4c(C(=O)NCC(C)(C)C)c[nH]c4c3)cc12)c1cccc(F)c1 [Compound 119] | 0.001 to 0.01 µM
46 | 0.001 to 0.01 µM | Cc1ccc([C@H](C)NC(=O)c2cn(C)c3ccc(-c4ccn5nc(NC(=O)C6CC6)nc5c4)cc23)cc1 [Compound 120] | < 0.001 µM
47 | 0.01 to 0.1 µM | CC(C)C(=O)Nc1nc2cc(-c3ccc4c(c3)c(C(=O)N[C@H](C)c3ccccc3)cn4C)ccn2n1 [Compound 121] | 0.001 to 0.01 µM
48 | 0.001 to 0.01 µM | CC(C)C(=O)Nc1nc2cc(-c3ccc4c(c3)c(C(=O)N[C@@H](C)c3ccccc3)cn4C)ccn2n1 [Compound 122] | < 0.001 µM
49 | 0.01 to 0.1 µM | CC(C)C(=O)Nc1nc2cc(-c3ccc4c(c3)c(C(=O)NC(C)(C)c3ccccc3)cn4C)ccn2n1 [Compound 123] | 0.001 to 0.01 µM
50 | 0.01 to 0.1 µM | CC(C)C(=O)Nc1nc2cc(-c3ccc4c(c3)c(C(=O)NC(C)c3cccc(F)c3)cn4C)ccn2n1 (stereo not shown) [Compound 124] | 0.001 to 0.01 µM
51 | 0.01 to 0.1 µM | CC(C)C(=O)Nc1nc2cc(-c3ccc4c(c3)c(C(=O)N[C@H](C)c3cccc(Cl)c3)cn4C)ccn2n1 [Compound 126] | 0.01 to 0.1 µM
52 | 0.01 to 0.1 µM | CC(C)C(=O)Nc1nc2cc(-c3ccc4c(c3)c(C(=O)N[C@@H](C)c3cccc(Cl)c3)cn4C)ccn2n1 [Compound 127] | < 0.001 µM
53 | 0.01 to 0.1 µM | COc1cccc([C@H](C)NC(=O)c2cn(C)c3ccc(-c4ccn5nc(NC(=O)C(C)C)nc5c4)cc23)c1 [Compound 129] | 0.001 to 0.01 µM
